# According to patent publication US11899025B2, “Pharmaceutical composition for preventing or treating neurodegenerative diseases comprising COX2 acetylating agent as active ingredient” (KYUNGPOOK NATIONAL UNIVERSITY INDUSTRY-ACADEMIC COOPERATION …, priority 2018, dated 2024):
# Columns and labels:
# COX2 = target: T1, COX2 (Mus musculus, UniProt Q05769); test: COX2 acetylation analysis with [14C]N-acetyl sphingosine; type: cell-based; conditions: 2 uCi [14C]N-acetyl sphingosine; FIG. 8c
# T1 construct: endogenous in cells; host or cells: primary neurons from mouse cerebrum
# T1 sequence (Q05769 18-604): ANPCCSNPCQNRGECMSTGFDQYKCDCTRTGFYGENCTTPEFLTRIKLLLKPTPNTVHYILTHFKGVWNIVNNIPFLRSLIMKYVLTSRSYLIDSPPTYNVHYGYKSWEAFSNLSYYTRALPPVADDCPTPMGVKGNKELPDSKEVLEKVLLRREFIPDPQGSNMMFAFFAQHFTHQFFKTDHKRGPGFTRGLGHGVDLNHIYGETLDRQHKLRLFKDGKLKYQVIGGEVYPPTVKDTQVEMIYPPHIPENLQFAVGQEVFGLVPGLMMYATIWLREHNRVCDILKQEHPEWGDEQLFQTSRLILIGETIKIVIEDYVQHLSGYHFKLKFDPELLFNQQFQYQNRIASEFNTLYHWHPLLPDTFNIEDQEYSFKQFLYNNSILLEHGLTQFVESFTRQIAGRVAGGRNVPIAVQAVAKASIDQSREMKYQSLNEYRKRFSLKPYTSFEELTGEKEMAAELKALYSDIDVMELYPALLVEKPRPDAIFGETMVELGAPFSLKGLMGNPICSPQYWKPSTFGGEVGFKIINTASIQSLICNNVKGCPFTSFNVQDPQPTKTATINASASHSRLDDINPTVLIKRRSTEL
# Method: In order to measure the neuroinflammatory resolution factor, after culturing neurons from mouse cerebrum, CM was prepared by treatment with 10 nM N-acetyl sphingosine 1 phosphate (Toronto Research chemicals, C262710) and N-acetyl sphingosine (Sigma, 01912). For COX2 acetylation analysis, neurons were cultured from mouse cerebrum and then treated with 2 uCi [^14C]N-acetyl sphingosine (ARC, ARC1024). In addition, for in vivo experiments, 7-month-old APP/PS1 mice were injected with 5 mg/kg N-acetyl sphingosine (Sigma, 01912), 1 mg/kg FTY720 and 3 uM S1P daily for 4 weeks via intraperitoneal injection. 1 month-old NPC mice were injected with 5 mg/kg N-acetyl sphingosine (Sigma, 01912) and 2-month-old FUS mice with 30 mg/kg N-acetyl sphingosine (Sigma, 01912) daily for 4 weeks via subcutaneous injection.
# Next, it was confirmed using N-acetyl sphingosine with C^14 attached to confirm whether the secretion of the neuroinflammatory resolution factor by the compounds was due to the increase in COX2 acetylation,
# In addition, it was confirmed that serine 565 (S565) against the COX2 peptide 560-[…]-575 was acetylated in the presence of N-acetyl sphingosine (FIG. 8d).
# FUS R521C mice = test: amyotrophic lateral sclerosis animal model (FUS R521C mice): immunofluorescence, Tail suspension, Rota-rod, Hanging wired test; type: in vivo, mouse; conditions: 2-month-old FUS mice, 30 mg/kg daily for 4 weeks, subcutaneous
# Description: It has been approved for mouse experiments by the Kyungpook National University Institutional Animal Care and Use Committee (IACUC). A transgenic mouse line overexpressing APPswe (hAPP695swe) or PS1 (presenilin-1M146V) based on C57BL/6 mice (Charles River, UK) was used. [Hereinafter, APP mouse: mouse overexpressing APPswe, PS1 mouse: mouse overexpressing presenilin-1M146V; GlaxoSmithKline]. As an Alzheimer's (AD) animal model, SphK1 tg (SphK1 gene overexpressing mouse) was crossed with APP mice and APP/PS1 mice to prepare APP/PS1/SphK1 tg mice. Niemanpick (NP-C) animal model, Balb/C (Orient, Wild type), NPC mutant mouse lacking NPC1 gene (Provided by Riken, Japan, NP-C mice; less weight than normal mice of the same age, and severe motor function loss from 4 to 6 weeks of age, limb tremors and seizures appear, and lifespan is approximately 9 to 10 weeks. Is) was used. As an animal model for amyotrophic lateral sclerosis (ALS), a transgenic mouse (FUS) line overexpressing RUS R521C based on C57BL/6 mice (Charles River, UK) was used.
# After fixing the cerebral and hippocampus of the mouse, anti-20G10 (mouse, 1:1000) against amyloid-β (Aβ) 42 and anti-G30 (rabbit, 1:1000) against Aβ 40, anti-MAP2 (chicken, 1:2000), anti-Synaptophysin (mouse, 1:100), anti-Synapsin1 (rabbit, 1:500), anti-PSD95 (mouse, 1:100), anti-Iba-1 (rabbit, 1:500), Anti-GFAP (rabbit, 1:500) was cultured together. The site was analyzed using a laser scanning confocal microscope or Olympus BX51 microscope equipped with Fluoview SV1000 imaging software (Olympus FV1000, Japan). Metamorph software (Molecular Devices) was used to quantify the percentage of the area of the stained area relative to the area of the total tissue.
# To check the motor ability of each experimental group mice, a Rota-rod, Beam test, Tail suspension test, and Hanging wired test were performed. […] The endurance time of the experimental animal was measured in seconds, and the average value was recorded. […] In the Beam test, the time taken to move to the end point after placing the mouse at the start point of a 12 mm wide bar was measured. […]
compound,measurement,setting,value
CCCCCCCCCCCCC/C=C/[C@@H](O)[C@H](CO)NC(C)=O [N-acetyl sphingosine],"COX2 acetylation compared with the sample of SphK1, acetyl-CoA and sphingosine",COX2,more acetylation
same,activity of microglia (Iba1) vs FUS R521C mice,FUS R521C mice; FIG. 11a,decreased
same,activity of astrocytes (GFAP) vs FUS R521C mice,FUS R521C mice; FIG. 11b,decreased
same,"exercise capacity (Tail suspension, Rota-rod, Hanging wired test) vs FUS R521C mice",FUS R521C mice; FIGS. 11c to e,improved
